This is an account of results in paper PMC4412958 (The Open Medicinal Chemistry Journal, 2015).

The experiment has as its target BACE-1 (Homo sapiens, UniProt P56817). The experiment in a line: BACE-1 enzyme assay. The conditions noted are these: Boc-protected compound; enzyme- and cell-based screening. In kind it is biochemical.

Chain of BACE-1 (P56817 46-501): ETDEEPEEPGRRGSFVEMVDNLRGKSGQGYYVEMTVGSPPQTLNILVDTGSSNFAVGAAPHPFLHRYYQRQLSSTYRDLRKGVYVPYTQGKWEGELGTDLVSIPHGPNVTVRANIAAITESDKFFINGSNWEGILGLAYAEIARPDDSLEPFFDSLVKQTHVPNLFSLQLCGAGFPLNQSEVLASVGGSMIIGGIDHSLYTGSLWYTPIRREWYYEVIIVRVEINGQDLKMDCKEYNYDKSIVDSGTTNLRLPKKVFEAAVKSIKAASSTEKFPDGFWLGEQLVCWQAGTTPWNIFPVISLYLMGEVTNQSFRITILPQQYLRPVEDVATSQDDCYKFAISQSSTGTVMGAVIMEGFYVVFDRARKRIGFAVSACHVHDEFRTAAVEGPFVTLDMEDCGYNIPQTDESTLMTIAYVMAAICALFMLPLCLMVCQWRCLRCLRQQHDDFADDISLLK

Regarding `Cc1cc2cc(c1)C(=O)N[C@H]([C@H](O)CN(Cc1cccc(C(C)C)c1)C(=O)OC(C)(C)C)CCC/C=C/CCCC2=O` [Compound 27b, (R)-2-Hydroxy-2-((E)-(S)-16-methyl-2,13-dioxo-3-aza-bicyclo[12.3.1]octadeca-1(17),8,14(18),15-tetraen-4-yl)-ethyl-(3-isopropyl-benzyl)-carbamic acid tert-butyl ester], the “BACE-1 activity (in words)” value is “inactive”.
